Read-outs that look alike come from different tables or passages of the source. Blank lines part the entries; values can stand above or below the compound they belong to.
Assays:
Type in all cases: physicochemical
[1] = Quantitative solubility in solvents, stepwise solvent addition with visual check; settings: read-out: solubility (concentration in solvent)
Protocol: The solubility of the active provided in Example 1 was further investigated in various solvents (entry 1 to 14 of Table 6). For the determination of the quantitative solubility, the respective solvent(-mixture) was added to approx. 40 mg of the solid, up to a maximum solvent addition of 2 mL in 50 - 200 µL steps. The vials were sealed between each addition of the solvent and the solubility was checked visually. […] Optically clear solutions were filtered via a so-called syringe prefilter and evaporated to dryness at different temperatures. Furthermore, cooling crystallizations were carried out. Undissolved substances were stirred for one week at room temperature in the respective anti-solvent. Table 5. Selection of solvents and anti-solvents
Based on the solvents and anti-solvents from Table 5, crystallization experiments, listed in Table 6, were carried out to obtain new solid forms of the active provided in Example 1. X-ray powder diffraction was used to assess whether a new phase has been formed.

[2] = DVS water sorption study (hydrate formation); settings: 0 to 90% RH and back in 10% increments
Protocol: The water sorption was determined using a DVS Resolution (London, UK) gravimetric sorption analyzer. The sample was dried at 0% relative humidity for 1000 minutes, after which the dry mass was recorded. Humidity was ramped in 10% increments to 90% RH and then back to 0% RH. The equilibrium criterion was set to a relative mass change of dm/dt=0.002%/minute.

[3] = Storage experiment, influence of temperature on stability of crystalline form A (HPLC purity, XRD form); settings: for Purity / remaining at 672 h / remaining at 2016 h / remaining at 4032 h: HPLC, 1 mg/2mL ACN; for remaining at 672 h / remaining at 2016 h / remaining at 4032 h: solid storage
Protocol: (§1) For Powder X-Ray Diffraction (XRD) the samples were placed into standard glass capillaries (∅ = 0.7 mm). The measurements were performed at room temperature with a D8 Bruker Advance Diffractometer (Cu-Kα1 = 1.5406 Å, Johansson primary beam monochromator, position sensitive detector) in transmission mode with rotation of the sample. Data were collected in a two-theta range of 2 - 38°. The tube voltage and current were 40 kV and 40 mA, respectively. [table] [table] Storage experiments in different environments (25°C, 50°C, 25°C/85 % RH) were performed to investigate the influence of temperature and moisture on the stability of crystalline form A of the compound of formula (I). […] Two samples of crystalline form A were stored at 25°C and 50°C, respectively (see Table 7). The samples were analyzed after 0, 1, 3, and 6 months by DSC, TGA, spectroscopy, X-ray powder diffraction, and HPLC (measurements for chemical stability). […] Exemplarily, the HPLC results are disclosed in Table 7. Table 7. Influence of temperature after four, 12, and 24 weeks. Purity determined by HPLC. ACN denotes acetonitrile. *entry 16 of Table 6

[4] = Storage experiment, influence of humidity on stability of crystalline form A (HPLC purity, XRD form)
Protocol: as §1, with “25°C/approx. 85 % rel. humidity” for “25°C and 50°C, respectively”, “8).” for “7).”, “8.” for “7.”, “humidity 0, 1, 3” for “temperature after four, 12,”, “6 months.” for “24 weeks.”

solubility ([1]; 3-methyl-1-butanol, organic solvent or mixture, 3-methyl-1-butanol, entry 9, evaporation 50°C): 21 mg/mL
solubility ([1]; acetonitrile, organic solvent or mixture, acetonitrile, entry 14, evaporation at ambient conditions): 30 mg/mL
solubility ([1]; cyclohexane, organic solvent or mixture, cyclohexane (anti-solvent, not completely dissolved), entry 8, slurry 1 week): 19 mg/mL
solubility ([1]; ethanol, organic solvent or mixture, EtOH, entry 5, evaporation at ambient conditions): 25 mg/mL
solubility ([1]; heptane, organic solvent or mixture, heptane (anti-solvent, not completely dissolved), entry 7, slurry 1 week): 19 mg/mL
solubility ([1]; isopropyl alcohol, organic solvent or mixture, isopropyl alcohol, entry 1, clear solution, evaporation at ambient conditions): 17 mg/mL
solubility ([1]; isopropyl alcohol/propylene carbonate 65:35, organic solvent or mixture, isopropyl alcohol/propylene carbonate 65:35 %w/w, entry 3, slurry 1 week): 268 mg/mL
solubility ([1]; isopropyl alcohol/propylene carbonate 65:35, organic solvent or mixture, isopropyl alcohol/propylene carbonate 65:35 %w/w, entry 4, evaporation 50°C): 93 mg/mL
solubility ([1]; propylene carbonate, organic solvent or mixture, propylene carbonate, entry 2, slurry 1 week): 276 mg/mL
solubility ([1]; water, H2O (anti-solvent, not completely dissolved), entry 6, slurry 1 week): 19 mg/mL
Compound: CN(C(=O)c1cc(-c2cnn(-c3c(Cl)cc(C(F)(C(F)(F)F)C(F)(F)F)cc3Cl)c2)cnc1Cl)C1CC1 [compound of formula (I), 2-Chloro-N-cyclopropyl-5-[1-[2,6-dichloro-4-[1,2,2,2-tetrafluoro-1-(trifluoromethyl)ethyl]phenyl]pyrazol-4-yl]-N-methyl-pyridine-3-carboxamide]

hydrate formation [2]: does not form hydrates
hygroscopicity [2]: not hygroscopic
mass increase over the entire area [2]: negligibly small
phase transition on storage ([3]; 25°C and 50°C, after twelve weeks): no phase transition
change in DSC, TGA, spectroscopy, X-ray powder diffraction and HPLC measurements on storage ([3]; 25°C and 50°C, after 0, 1, 3 and 6 months): did not result in a significant change
Purity ([3]; 25 °C, 4 weeks, 40320 min, listed as 16*): 99.09%
Purity ([3]; 25 °C, 12 weeks, 120960 min, listed as 16*): 99.23%
Purity ([3]; 50 °C, 12 weeks, 120960 min, listed as 16*): 99.25%
Purity ([3]; 50 °C, 24 weeks, 241920 min, listed as 16*): 99.34%
Purity ([3]; no storage (initial value)): 99.54%
remaining at 672 h ([3]; 25 °C, 4 weeks): 98.3%
remaining at 2016 h ([3]; 25 °C, 12 weeks): 99.3%
remaining at 4032 h ([3]; 25 °C, 24 weeks): 99.4%
remaining at 672 h ([3]; 50 °C, 4 weeks): 99.1%
remaining at 2016 h ([3]; 50 °C, 12 weeks): 99.5%
remaining at 4032 h ([3]; 50 °C, 24 weeks): 99.4%
Purity ([4]; 25 °C, 85% RH, 4 weeks, HPLC, 1 mg/2mL ACN, 40320 min, listed as 16*): 99.10%
Purity ([4]; 25 °C, 85% RH, 12 weeks, HPLC, 1 mg/2mL ACN, 120960 min, listed as 16*): 99.25%
Purity ([4]; 25 °C, 85% RH, 24 weeks, HPLC, 1 mg/2mL ACN, 241920 min, listed as 16*): 99.75%
phase transition on storage ([4]; 25°C/85 % RH, after twelve weeks): no phase transition
change in DSC, TGA, spectroscopy, X-ray powder diffraction and HPLC measurements on storage ([4]; 25°C/approx. 85 % rel. humidity, after 0, 1, 3 and 6 months): did not result in a significant change
Purity ([4]; no storage (initial value), HPLC, 1 mg/2mL ACN): 99.54%
remaining at 672 h ([4]; solid storage, 85% rh, 25 °C, 4 weeks, HPLC, 1 mg/2mL ACN): 99%
remaining at 2016 h ([4]; solid storage, 85% rh, 25 °C, 12 weeks, HPLC, 1 mg/2mL ACN): 99.3%
remaining at 4032 h ([4]; solid storage, 85% rh, 25 °C, 24 weeks, HPLC, 1 mg/2mL ACN): 99.4%
Compound: CN(C(=O)c1cc(-c2cnn(-c3c(Cl)cc(C(F)(C(F)(F)F)C(F)(F)F)cc3Cl)c2)cnc1Cl)C1CC1 [crystalline form A, 2-chloro-N-cyclopropyl-5-[1-[2,6-dichloro-4-[1,2,2,2-tetrafluoro-1-(trifluoromethyl)ethyl]phenyl]pyrazol-4-yl]-N-methyl-pyridine-3-carboxamide]

Source: patent EP4001271A1, “CRYSTALLINE FORM OF 2-CHLORO-N-CYCLOPROPYL-5-[1-[2,6-DICHLORO-4-[1,2,2,2-TETRAFLUORO-1- (TRIFLUOROMETHYL)ETHYL]PHENYL]PYRAZOL-4-YL]-N-METHYL-PYRIDINE-3-CARBOXAMIDE” (Bayer Aktiengesellschaft, priority 2020, dated 2022)
